# Tested on: Aorta
# Experiment: Vasorelaxant activity in Wister rat isolated thoracic aortic rings assessed as reduction of norepinephrine hydrochloride-induced contraction
# Format: functional, tissue-based
row,IC50 [µM],SMILES
1,436,CCOc1nc(-c2nc3ccccc3n2C)cc(-c2ccc(OC)cc2)c1C#N
2,295,COc1nc(-c2nc3ccccc3n2C)cc(-c2ccc(C)cc2)c1C#N
3,343,COc1nc(-c2nc3ccccc3n2C)cc(-c2ccc(F)cc2)c1C#N
4,364,CCOc1nc(-c2nc3ccccc3n2C)cc(-c2ccccc2)c1C#N
5,145,COc1nc(-c2nc3ccccc3n2C)cc(-c2ccc(Cl)cc2)c1C#N
6,300,COc1nc(-c2nc3ccccc3n2C)cc(-c2ccccc2)c1C#N
7,312,COc1nc(-c2nc3ccccc3n2C)cc(-c2cccs2)c1C#N
8,214,COc1nc(-c2nc3ccccc3n2C)cc(-c2ccc(Cl)cc2Cl)c1C#N
9,283,COc1nc(-c2nc3ccccc3n2C)cc(-c2ccc(C)o2)c1C#N
10,362,CCOc1nc(-c2nc3ccccc3n2C)cc(-c2ccc(F)cc2)c1C#N
11,210,COc1ccc(-c2cc(-c3nc4ccccc4n3C)nc(OC)c2C#N)cc1
12,293,CCOc1nc(-c2nc3ccccc3n2C)cc(-c2ccc(Cl)cc2)c1C#N
13,286,COc1nc(-c2nc3ccccc3[nH]2)cc(-c2ccc(Cl)cc2)c1C#N
14,202,COc1nc(-c2nc3ccccc3[nH]2)cc(-c2ccc(C)o2)c1C#N
15,249,CCOc1nc(-c2nc3ccccc3n2C)cc(-c2cccs2)c1C#N
16,336,CCOc1nc(-c2nc3ccccc3n2C)cc(-c2ccc(C)o2)c1C#N
17,400,CCOc1nc(-c2nc3ccccc3n2C)cc(-c2ccc(C)cc2)c1C#N
18,305,CCOc1nc(-c2nc3ccccc3n2C)cc(-c2ccc(Cl)cc2Cl)c1C#N

# Source: ChEMBL document CHEMBL2390873, “Rational design, synthesis and QSAR study of vasorelaxant active 3-pyridinecarbonitriles incorporating 1H-benzimidazol-2-yl function” (Eur J Med Chem, 2013)
